The source of these data is patent publication US6221676A, “DNA encoding human leukotriene C4 synthase, polypeptides and uses therefor” (Brigham and Women's Hospital, priority 1997, dated 2001).

Bounds are passed on as bounds.

For one test, the target named is T1, LTC4 synthase (Homo sapiens, UniProt Q16873).
T1 construct: expressed in transfected cells; host or cells: COS-7 (lysate of transfectants; cDNA from a KG-1 library in pcDNA3)
T1 sequence (Q16873 1-150): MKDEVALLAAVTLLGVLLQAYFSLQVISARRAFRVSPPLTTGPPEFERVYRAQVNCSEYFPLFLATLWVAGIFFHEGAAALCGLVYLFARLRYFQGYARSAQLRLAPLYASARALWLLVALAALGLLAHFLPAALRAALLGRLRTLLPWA
Put plainly: Inhibition of LTC4 synthase activity (conversion of LTA4-ME to LTC4-ME) in lysates of transfected COS-7 cells. Type of test: biochemical. How it is done: HPLC was carried out with a model 126 dual pump system and model 167 scanning UV detector (Beckman Instruments) controlled by an IBM PS2/50 computer using Beckman System Gold software. Samples were applied to a 5-μm 4.6×250-mm C18 Ultrasphere reverse phase column (Beckman Instruments) equilibrated with a solvent of methanol/acetonitrile/water/acetic acid (10:15:100:0.2, v/v), pH 6.0 (solvent A). After injection of the sample, the column was eluted at a flow rate of 1 ml/min with a programmed concave gradient (System Gold curve 6) to 30% solvent A and 70% pure methanol (solvent B) over 0.2 min. After 2.8 min more, solvent B was increased linearly to 90% over 2 min and was maintained at this level for an additional 10 min. UV absorbance at 280 nm and the UV spectra were recorded simultaneously. The retention times for PGB2 and LTC4 -ME were 8.5 and 10.1 min, respectively. LTC4 -ME was quantitated by calculating the ratio of the peak area to the area of the internal standard PGB2.
Dose-Response Assay using MK886
Cell lysates of the COS-7 cell transfectant containing SEQ ID NO.: 1 were incubated with 20 micromolar LTA4 -ME, 20 mM GSH, 5 mM MgCl2 in HEPES buffer (pH 7.6), in the presence of 0-10 micromolar MK-886 for 10 minutes at room temperature. Reactions were stopped by addition of 2 volumes of methanol containing 200 ng PGB2. Samples were analyzed by RP-HPLC.
Lysates from transfected COS cells were analysed for LTC4, the product of conjugating reduced glutathione with 5,6-oxido-7,9-E-11,14-Z-eicosatetraenoic acid. […] At 10 μM, MK-886 inhibits more than 90% of the enzyme activity.

A short description of test [1]: Conjugation of GSH to 1-chloro-2,4-dintrobenzene by purified LTC4 synthase fraction. Type of test: biochemical. Conditions: fraction purified from native KG-1 cells. The source says: Detergent-solubilize LTC4 synthase from 6×10^10 native KG-1 cells (using 0.4% deoxycholate, 0.4% Triton X-102, 10% glycerol) was purified by S-hexylglutathione-agarose chromatography using procedures adapted from Penrose et al., Proc. Nat. Acad. Sci., USA, 89:, above, followed by LTC2 affinity chromatography. Active fractions purified from the S-hexylglutathione-agarose column were combined, concentrated (Amicon, Danvers, Mass.) and then loaded onto an LTC2 affinity column equilibrated with buffer A and 0.1% Triton X-102. The column was washed with the same buffer and the enzyme was eluted with buffer A, containing 0.1% Triton X-102, 0.5 M NaCl and 5 mM reduced glutathione.
The LTC4 synthase activity contained a single 18-kDa protein by sodium dodecyl sulfate-polyacrylamide gel electrophoresis (NaDodSO4 -PAGE) with silver staining. […] A sample of the purified protein was concentrated and added to an equal volume of reducing buffer, and the mixture was boiled for 5 min. The reduced protein in this solution was bound to a polyvinylidene membrane by incubation overnight at 4° C. The bound protein was analyzed for N-terminal amino acid sequence by automated Edman degradation or was digested in situ with trypsin. Fernandez et al., Anal. Biochem., 201: 255-264 (1992). […]

For the molecule `C[C@H](C#Cc1ccc(Oc2ccc(F)cc2)o1)N(O)C(N)=O` [A79175], the “effect on LTC4 synthase activity” value on LTC4 synthase (at a concentration of 10 μM, COS cell lysates) is “did not affect LTC4 synthase activity”.

One may read the IC50 as the point on the concentration scale where inhibition reaches its midpoint. By inhibition is commonly meant the share of the control response that was lost under treatment. As for `CC(C)c1ccc2c(c1)c(SC(C)(C)C)c(CC(C)(C)C(=O)O)n2Cc1ccc(Cl)cc1` [MK-886], the IC50 is less than 3 µM on LTC4 synthase (IC50, inhibition of conversion of LTA4-ME to LTC4-ME, 20 uM LTA4-ME, COS cell lysates, dose-dependent, 10 minutes, room temperature) and approximately 3 µM against LTC4 synthase (ID50, inhibition of LTC4 synthase activity, transfected COS cell lysates, dose-related (Discussion)). In addition, at LTC4 synthase (read-out: inhibition of the enzyme activity), the inhibition at 10 µM is more than 90%.

B1: LTC4 synthase: 150-amino acid residue integral membrane protein with three hydrophobic transmembrane domains (protein, UniProt Q16873 1-150, looked up)
Leukotriene C4 synthase: MKDEVALLAAVTLLGVLLQAYFSLQVISARRAFRVSPPLTTGPPEFERVYRAQVNCSEYFPLFLATLWVAGIFFHEGAAALCGLVYLFARLRYFQGYARSAQLRLAPLYASARALWLLVALAALGLLAHFLPAALRAALLGRLRTLLPWA
For B1, the “conjugation of GSH to 1-chloro-2,4-dintrobenzene” value in test [1] is “did not conjugate GSH to 1-chloro-2,4-dintrobenzene”.
